For one data set, the target named is T1, human KOPr (Homo sapiens, UniProt P41145).
T1 construct: expressed in transfected cells; HEK293-Glo20F cells (cAMP)
Put plainly: Glo-sensor cAMP assay. The data set is classed as cell-based. How it is done:
(§1) Stimulation by endogenous RF-amide peptides or test compounds for [^35S]-GTPγS binding to membranes from CHO cells expressing human NPFF1R or NPFF2R, were examined as reported. 1.6. Glo-Sensor cAMP Assay cAMP accumulation assay was essentially done as described with the following modifications: HEK293 cells stably expressing cAMP Glosensor-20F were used, with or without additional stable expression of each individual opioid receptor or NPFF1R. The cAMP responses were measured in presence of D-luciferin (1 mM).

The subject of data set [1] is C57BL/6N mice. The data set is described as follows: Hyperalgesia and analgesic tolerance upon chronic sc. treatment, tail immersion test. The data set is classed as in vivo. As to conditions: for antinociceptive effect on day 1: equianalgesic sc. doses, 25 s cut-off; for basal thermal nociceptive threshold (development of hyperalgesia): chronic daily sc., compared with saline. As for the experimental part: Animal experiments were performed on adult male C57BL/6N male mice (25-30 g weight; Janvier labs, France). Animals were housed in groups of three to five per cage and kept under a 12 h/12 h light/dark cycle at 21±1° C. with ad libitum access to food and water. Experiments were performed during the light-on phase of the cycle. Mice were habituated to the testing room and equipment before starting behavioral experiments. Control and treated group assignment as well as pain response measurements were performed in a blinded manner. Every animal was used only once. 1.11. Drug administration All drugs were dissolved in physiological saline (0.9%) and administered subcutaneously (sc.) at 10 mL/kg (volume/body weight). […] Assessment of thermal nociception The nociceptive sensitivity to thermal stimulation was determined in mice using the warm-water tail immersion tests as previously described [12; 49]. In the tail immersion test, C57BN/6N mice were restrained in a grid pocket and their tail was immersed in a thermostated water bath. The latency (in sec) for tail withdrawal from hot water (47.5±0.5° C.) was taken as a measure of the nociceptive response. In the absence of any nociceptive reaction, a cut-off value of 25 sec was set to avoid tissue damage. Experiments for chronic drug effects were designed according to a protocol enabling the evaluation of time-course of opioid-induced hyperalgesia and development of analgesic tolerance using the tail immersion test. […] For analgesic tolerance evaluation, nociceptive latencies were measured on day 1 and 8 according to the acute effect protocol. For the assessment of hyperalgesia, basal nociceptive latencies were measured every day, 30 min before drug or saline injection. Responses are expressed as latency times (in sec) of tail withdrawal from the hot water.

The target in data set [2] is T2, human MOPr (Homo sapiens, UniProt P35372). The data set is described as follows: cell-based. Format: cell-based. More on the design: expressed in transfected cells; HEK293-Glo20F cells (cAMP). Conditions: for MOPr-induced G protein activation: in words; for Emax: read-out: MOPr (cAMP) Emax. Put shortly: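 GTPγS binding used membranes of CHO cells expressing NPFF1R or NPFF2R, stimulated by RF-amide peptides or test compounds. cAMP was measured in HEK293 cells stably carrying Glosensor-20F, with or without stable expression of an opioid receptor or NPFF1R, in the presence of 1 mM D-luciferin.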

Data set [3] deals with T2, human MOPr. Put plainly: Radioligand competition binding with [3H]-diprenorphine. More on the design: expressed in transfected cells; HEK293-Glo20F cells (cAMP). (In general: Displacement assays read how much labelled ligand stays bound in the presence of the test substance.)
The target in data set [4] is T3, human DOPr (Homo sapiens, UniProt P41143).
T3 construct: expressed in transfected cells; HEK293-Glo20F cells (cAMP)
Put plainly: Glo-sensor cAMP assay. Format: cell-based. As for the experimental part:
as §1, with “mM). All peptides and test compounds were incubated in the presence of IBMX for 15 min before inducing cAMP production by forskolin. IBMX and forskolin concentrations were optimized for each receptor cell line: NPFF1R responses were recorded in presence of 0.1 mM IBMX and 0.4 μM forskolin, NPFF2R responses with 0.5 mM IBMX and 0.3 μM forskolin, MOPr responses with 0.5 mM IBMX and 0.125 μM forskolin, DOPr responses with 0.1 mM IBMX and 0.125 μM forskolin; KOPr and NOPr with 0.5 mM IBMX and 1.5 μM forskolin.” for “mM).”

For a further data set, the target named is human NPFF1R (Homo sapiens, UniProt Q9GZQ6). The data set is described as follows: [35S]-GTPγS binding assay. Format: biochemical. Details: expressed in transfected cells. Conditions: for Emax: relative to RFRP3. As for the experimental part:
as §1
In general terms: GTPγS is a poorly hydrolysed GTP analogue; its binding reports G protein activation.

Another data set concerns the target NPFF2R (Homo sapiens, UniProt Q9Y5X5). Put plainly: [35S]-GTPγS binding assay. The data set is classed as biochemical. More on the design: expressed in transfected cells. How it is done: as §1
The target in data set [5] is T3, human DOPr. The data set is described as follows: biochemical. Format: binding.
Data set [6] relates to C57BL/6N mice. The data set is described as follows: Respiratory depression by whole body plethysmography. The data set is classed as in vivo. Conditions: acute sc.; KGOP01 1.8, KGFF03 1.2, KGFF09 7.4 μmol/kg; 100 min. As for the experimental part: Ventilatory parameters were recorded in conscious C57BL/6N mice by whole body barometric plethysmography (Emka Technologies, Paris, France). Mice were acclimatized with the plethysmograph chamber for 30 min until a stable baseline was obtained. Then, the animal was gently removed from the chamber for sc. injection of the tested drug at TO and replaced in the chamber for the remaining measurements. Respiratory frequency (f) was recorded for 100 min and used as the index of respiratory depression.

The subject of data set [7] is C57BL/6N mice. The data set is described as follows: CFA-induced inflammatory pain model. The data set is classed as in vivo. Conditions: for CFA-induced thermal hypersensitivity (basal threshold): daily sc., measured before injection. As for the experimental part:
Tail inflammation in C57BL/6N mice was induced by injecting subcutaneously 20 μl of a Complete Freund's Adjuvant (CFA) solution or saline (control mice) 3 cm from the tip of the tail. Twenty-four hours after CFA injection (day 1), inflammation was confirmed by measuring thermal and mechanical hyperalgesia. Mice were then treated sc. daily for 7 days (from day 1 to day 7) with the test compounds or saline (control). Nociceptive threshold to heat stimulation was measured by tail immersion test (47.5±0.5° C.) and tail pressure test each hour for 5 h after the first drug administration in order to determine the peak of the anti-hyperalgesic response. During the following days, basal nociceptive thresholds were evaluated before injection and 2 h after drug injection. Antinociceptive response was calculated as percent of Maximum Possible Effect (% MPE) according to the formula=[(test latency−CFA/saline mice latency)/(cut-off time−CFA/saline mice latency)]×100. In order to limit behavioral sensitization, thermal nociception was evaluated on days 1-2-4-6 and mechanical nociception on days 1-3-5-7.

Where [8] appears, read: Table 3a, HEK293-Glo20F-hMOPr cells, read-out: MOPr (cAMP) EC50.

Where two headings read alike, the source gives them in different places. Residues, ends and D or L forms follow the SMILES beside them.
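Wherever MOPr (cAMP) Emax is given: Emax relative to DAMGO as 100%.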

T1 sequence (P41145 whole entry): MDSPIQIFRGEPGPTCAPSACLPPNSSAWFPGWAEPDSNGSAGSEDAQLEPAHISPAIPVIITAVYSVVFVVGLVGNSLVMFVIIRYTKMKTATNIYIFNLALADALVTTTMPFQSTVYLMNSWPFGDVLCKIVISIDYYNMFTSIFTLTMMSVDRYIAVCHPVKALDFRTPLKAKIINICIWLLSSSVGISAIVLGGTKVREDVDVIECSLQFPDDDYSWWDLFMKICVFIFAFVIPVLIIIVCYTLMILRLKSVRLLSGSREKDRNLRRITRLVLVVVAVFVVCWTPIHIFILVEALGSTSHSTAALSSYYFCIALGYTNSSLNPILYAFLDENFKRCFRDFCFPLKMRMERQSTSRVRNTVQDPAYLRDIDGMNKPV
Chain of human NPFF1R (Q9GZQ6 whole entry): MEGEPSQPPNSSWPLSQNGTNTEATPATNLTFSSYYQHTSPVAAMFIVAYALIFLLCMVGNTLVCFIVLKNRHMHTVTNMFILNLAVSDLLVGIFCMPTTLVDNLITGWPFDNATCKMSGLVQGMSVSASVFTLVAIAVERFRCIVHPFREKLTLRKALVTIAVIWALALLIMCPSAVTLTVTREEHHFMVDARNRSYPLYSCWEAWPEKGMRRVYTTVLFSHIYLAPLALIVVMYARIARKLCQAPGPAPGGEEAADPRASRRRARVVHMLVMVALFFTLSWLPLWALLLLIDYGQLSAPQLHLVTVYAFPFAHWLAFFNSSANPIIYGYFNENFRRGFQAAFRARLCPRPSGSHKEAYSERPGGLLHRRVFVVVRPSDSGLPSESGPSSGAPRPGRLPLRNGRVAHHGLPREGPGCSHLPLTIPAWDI
T2 sequence (P35372 whole entry): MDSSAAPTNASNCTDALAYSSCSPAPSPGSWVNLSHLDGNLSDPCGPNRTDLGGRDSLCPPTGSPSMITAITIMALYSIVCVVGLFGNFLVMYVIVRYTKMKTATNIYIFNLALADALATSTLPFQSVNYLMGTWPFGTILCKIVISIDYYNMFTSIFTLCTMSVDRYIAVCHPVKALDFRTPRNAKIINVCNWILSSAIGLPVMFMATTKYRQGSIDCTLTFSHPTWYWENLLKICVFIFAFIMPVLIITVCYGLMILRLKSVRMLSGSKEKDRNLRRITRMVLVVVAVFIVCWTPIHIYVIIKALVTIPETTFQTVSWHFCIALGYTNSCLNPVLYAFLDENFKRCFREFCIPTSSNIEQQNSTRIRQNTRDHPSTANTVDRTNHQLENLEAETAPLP
T3 sequence (P41143 whole entry): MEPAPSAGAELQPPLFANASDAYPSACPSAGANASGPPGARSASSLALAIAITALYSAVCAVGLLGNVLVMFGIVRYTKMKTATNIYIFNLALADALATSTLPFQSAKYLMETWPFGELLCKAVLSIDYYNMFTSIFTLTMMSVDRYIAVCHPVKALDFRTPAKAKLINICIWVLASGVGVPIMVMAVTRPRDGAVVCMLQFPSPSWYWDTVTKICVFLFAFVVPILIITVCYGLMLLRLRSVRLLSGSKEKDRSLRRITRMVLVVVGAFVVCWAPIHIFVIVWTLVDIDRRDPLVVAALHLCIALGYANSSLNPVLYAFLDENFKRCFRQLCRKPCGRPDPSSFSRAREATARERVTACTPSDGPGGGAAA
Chain of NPFF2R (Q9Y5X5 whole entry): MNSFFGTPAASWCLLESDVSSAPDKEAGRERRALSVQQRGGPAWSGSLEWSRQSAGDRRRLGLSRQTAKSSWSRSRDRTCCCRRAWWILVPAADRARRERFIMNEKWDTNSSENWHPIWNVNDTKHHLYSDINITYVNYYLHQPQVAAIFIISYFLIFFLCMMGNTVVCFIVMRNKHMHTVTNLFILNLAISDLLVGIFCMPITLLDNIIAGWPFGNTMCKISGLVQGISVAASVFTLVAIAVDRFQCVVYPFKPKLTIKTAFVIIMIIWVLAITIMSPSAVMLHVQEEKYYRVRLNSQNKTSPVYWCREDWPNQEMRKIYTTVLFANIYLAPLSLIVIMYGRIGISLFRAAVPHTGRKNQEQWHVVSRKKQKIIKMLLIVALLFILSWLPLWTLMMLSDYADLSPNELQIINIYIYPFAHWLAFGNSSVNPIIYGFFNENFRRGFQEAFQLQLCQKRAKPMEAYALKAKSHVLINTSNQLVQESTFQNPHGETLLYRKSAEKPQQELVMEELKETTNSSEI

As for `Cc1cc(O)cc(C)c1C[C@H](N)C(=O)N[C@H](CCCNC(=N)N)C(=O)N[C@H]1Cc2ccccc2CN(CCC(=O)N[C@@H](CCCNC(=N)N)C(=O)N[C@@H](Cc2ccccc2)C(N)=O)C1=O` [KGFF03, H-Dmt-D-Arg-Aba-β-Ala-Arg-Phe-NH2] (HELM PEPTIDE1{[Cc1cc(O)cc(C)c1C[C@H](N)C(=O)[*:2]].[dR].[O=C1[C@@H](N[*:1])Cc2ccccc2CN1CCC(=O)[*:2]].R.F.[am]}$$$$V2.0), the EC50 (in general, the concentration at which the effect is half-maximal) on human KOPr stood at 95 nM; on human MOPr [2] (setting [8]), 12 ± 2 nM; at human DOPr [4], 0.34 nM. In addition, the Emax (in general, the greatest response seen or fitted, relative to the assay's reference) is 34 ± 11% at human KOPr; 92 ± 1% at human MOPr [2]; 89 ± 6% on human DOPr [4]; 88 ± 7% at human NPFF1R; 111 ± 17% at NPFF2R. Besides, the “antinociceptive effect on day 1” value with C57BL/6N mice [1] was “full antinociception”. The “MOPr-induced G protein activation” value on human MOPr [2] was “highly potent and fully efficacious”. Moreover, the inhibition constant Ki (commonly a dissociation constant, usually derived from enzyme kinetics or from competition with a known ligand) at human MOPr [3] is 0.24 ± 0.03 nM; at human DOPr [5], 9.1 ± 0.7 nM. Moreover, the “respiratory depression (respiratory frequency) compared to saline” value (“respiratory depression … compared to saline” for short) in the data set with C57BL/6N mice [6] is given as “did not”. Besides, the “CFA-induced thermal hypersensitivity (basal threshold)” value (“CFA-induced thermal hypersensitivity” below) in the data set with C57BL/6N mice [7] is “not the case”.

Regarding `Cc1cc(O)cc(C)c1C[C@H](N)C(=O)N[C@H](CCCNC(=N)N)C(=O)N[C@H]1Cc2ccccc2CN(CCC(=O)N[C@@H](CCCN2CCC(Cc3ccccc3)CC2)C(=O)N[C@@H](Cc2ccccc2)C(N)=O)C1=O` [KGFF09, H-Dmt-D-Arg-Aba-β-Ala-Bpa-Phe-NH2], the Emax on human KOPr turned out to be 15 ± 1%; at human MOPr [2], 85 ± 2%; at human DOPr [4] it was 90 ± 3%; at human NPFF1R, 10 ± 2%; at NPFF2R, 38 ± 14%. Further, the “basal thermal nociceptive threshold (development of hyperalgesia)” value in the data set on C57BL/6N mice [1] was “absent”. Moreover, the “decrease in antinociception efficacy (AUC) on day 8 compared to day 1” value in the data set on C57BL/6N mice [1] (daily sc. d1-d8, KGOP01 1.8, KGFF03 1.2, KGFF09 7.4 μmol/kg/d) is given as “less than 25%”. The “antinociceptive effect on day 1” value in the data set with C57BL/6N mice [1] was “full antinociception”. In addition, the EC50 at human MOPr [2] (Table 3B, read-out: MOPr (cAMP) EC50) was determined as 18.2 ± 6.1 nM; on human MOPr [2] (setting [8]), 18.2 ± 6.1 nM; at human DOPr [4] it was 0.78 nM. The “MOPr-induced G protein activation” value at human MOPr [2] was “highly potent and fully efficacious”. Besides, the values for the inhibition constant (Ki) at human MOPr [3] and on human DOPr [5] were 2.43 ± 0.18 nM and 186 ± 77 nM, respectively. The “respiratory depression … compared to saline” value in the data set with C57BL/6N mice [6] is on record as “did not”. In addition, in the data set on C57BL/6N mice [7], the “CFA-induced thermal hypersensitivity” value is “totally reversed after the third injection”. In addition, the “analgesic tolerance after 7 days of chronic administration” value with C57BL/6N mice [7] (in words) was “significantly less tolerance”.

On to `Cc1cc(O)cc(C)c1C[C@H](N)C(=O)N[C@H](CCCNC(=N)N)C(=O)N[C@H]1Cc2ccccc2CN(CCC(N)=O)C1=O` [KGOP01, reference compound], for which the Emax at human KOPr worked out at 18 ± 1%; on human MOPr [2] it was 89 ± 2%; at human DOPr [4], 91 ± 2%. The 50% effective concentration (EC50) at human KOPr (read-out: KOPr (cAMP) EC50) is over 10000 nM; at human MOPr [2] (MOPr (cAMP) EC50), 0.204 ± 0.05 nM; on human DOPr [4], 0.16 ± 0.01 nM; at human NPFF1R (membranes from CHO-hNPFF1R cells, read-out: NPFF1R (GTPγS) EC50), over 10000 nM; on NPFF2R (membranes from CHO-hNPFF2R cells, read-out: NPFF2R (GTPγS) EC50), over 10000 nM. The “basal thermal nociceptive threshold (development of hyperalgesia)” value in the data set on C57BL/6N mice [1] was “significant and progressive decrease”. In addition, the “antinociceptive effect on day 1” value with C57BL/6N mice [1] is listed as “full antinociception”. Moreover, the Ki was determined as 0.12 ± 0.02 nM at human MOPr [3] and 5.1 ± 0.5 nM on human DOPr [5]. In addition, in the data set with C57BL/6N mice [6], the “respiratory depression … compared to saline” value is reported as “significant respiratory depression”. Further, in the data set on C57BL/6N mice [7], the “CFA-induced thermal hypersensitivity” value was “not the case”.
